Results reported in patent US7521441B2, “Cyclopropyl fused indolobenzazepine HCV NS5B inhibitors” (Bristol-Myers Squibb Company, priority 2006, dated 2009).
Like-named read-outs stand apart in the source and are kept apart here.

Assays:
[1] = biological target: T1, HCV NS5B RdRp genotype 1b (Hepatitis C virus genotype 1b, UniProt Q9WMX2); assay: Modified HCV NS5B RdRp enzyme assay (preincubation protocol); format: biochemical; settings: HCV NS5B genotype 1b
T1 construct: The protein was expressed with an 18 amino acid C-terminal truncation to enhance the solubility; made in house; host or cells: E. coli BL21(DE3), pET21a vector
Description: HCVNS5B RdRp cloning, expression, and purification. The cDNA encoding the NS5B protein of HCV, genotype 1b, was cloned into the pET21a expression vector. The protein was expressed with an 18 amino acid C-terminal truncation to enhance the solubility. The E. coli competent cell line BL21(DE3) was used for expression of the protein. Cultures were grown at 37° C. for ˜4 hours until the cultures reached an optical density of 2.0 at 600 nm. The cultures were cooled to 20° C. and induced with 1 mM IPTG. Fresh ampicillin was added to a final concentration of 50 μg/ml and the cells were grown overnight at 20° C.
Cell pellets (3L) were lysed for purification to yield 15-24 mgs of purified NS5B. The lysis buffer consisted of 20 mM Tris-HCl, pH 7.4, 500 mM NaCl, 0.5% triton X-100, 1 mM DTT, 1 mM EDTA, 20% glycerol, 0.5 mg/ml lysozyme, 10 mM MgCl2, 15 ug/ml deoxyribonuclease I, and Complete TM protease inhibitor tablets (Roche). After addition of the lysis buffer, frozen cell pellets were resuspended using a tissue homogenizer. To reduce the viscosity of the sample, aliquots of the lysate were sonicated on ice using a microtip attached to a Branson sonicator. The sonicated lysate was centrifuged at 100,000×g for 1 hr at 4° C. and filtered through a 0.2 μm filter unit (Corning).
The protein was purified using three sequential chromatography steps: Heparin sepharose CL-6B, polyU sepharose 4B, and Hitrap SP sepharose (Pharmacia). The chromatography buffers were identical to the lysis buffer but contained no lysozyme, deoxyribonuclease I, MgCl2 or protease inhibitor and the NaCl concentration of the buffer was adjusted according to the requirements for charging the protein onto the column. Each column was eluted with a NaCl gradient which varied in length from 5-50 column volumes depending on the column type. After the final chromatography step, the resulting purity of the enzyme is >90% based on SDS-PAGE analysis. The enzyme was aliquoted and stored at −80° C.
Standard HCVNS5B RdRp enzyme assay. HCV RdRp genotype 1b assays were run in a final volume of 60 μl in 96 well plates (Costar 3912). The assay buffer is composed of 20 mM Hepes, pH 7.5, 2.5 mM KCl, 2.5 mM MgCl2, 1 mM DTT, 1.6 U RNAse inhibitor (Promega N2515), 0.1 mg/ml BSA (Promega R3961), and 2% glycerol. All compounds were serially diluted (3-fold) in DMSO and diluted further in water such that the final concentration of DMSO in the assay was 2%. HCV RdRp genotype 1b enzyme was used at a final concentration of 28 nM. A polyA template was used at 6 nM, and a biotinylated oligo-dT12 primer was used at 180 nM final concentration. Template was obtained commercially (Amersham 27-4110). Biotinylated primer was prepared by Sigma Genosys. 3H-UTP was used at 0.6 μCi (0.29 μM total UTP). Reactions were initiated by the addition of enzyme, incubated at 30° C. for 60 min, and stopped by adding 25 μl of 50 mM EDTA containing SPA beads (4 μg/μl, Amersham RPNQ 0007). Plates were read on a Packard Top Count NXT after >1 hr incubation at room temperature.
Modified HCVNS5B RdRp enzyme assay. A modified enzyme assay was performed essentially as described for the standard enzyme assay except for the following: The biotinylated oligo dT12 primer was precaptured on streptavidin-coated SPA beads by mixing primer and beads in assay buffer and incubating at room temperature for one hour. Unbound primer was removed after centrifugation. The primer-bound beads were resuspended in 20 mM Hepes buffer, pH 7.5 and used in the assay at final concentrations of 20 nM primer and 0.67 μg/μl beads. Order of addition in the assay: enzyme (14 nM) was added to diluted compound followed by the addition of a mixture of template (0.2 nM), 3H-UTP (0.6 μCi, 0.29 μM), and primer-bound beads, to initiate the reaction; concentrations given are final. Reactions were allowed to proceed for 4 hours at 30° C.
IC50 values for compounds were determined using seven different [I]. […]

[2] = test system: HCV replicon cells; assay: HCV replicon FRET assay; format: cell-based
Excerpt: FRET Assay Preparation. To perform the HCV FRET screening assay, 96-well cell culture plates were used. The FRET peptide (Anaspec, Inc.) (Taliani et al., Anal. Biochem. 1996, 240, 60-67) contains a fluorescence donor, EDANS, near one end of the peptide and an acceptor, DABCYL, near the other end. The fluorescence of the peptide is quenched by […] resonance energy transfer (RET) between the donor and the acceptor, but as the NS3 protease cleaves the peptide the products are released from RET quenching and the fluorescence of the donor becomes apparent. The assay reagent was made as follows: 5× cell Luciferase cell culture lysis reagent from Promega (#E153A) diluted to 1× with dH2O, NaCl added to 150 mM final, the FRET peptide diluted to 20 uM final from a 2 mM stock.
To prepare plates, HCV replicon cells, with or without a Renilla luciferase reporter gene, were trypsinized and placed into each well of a 96-well plate with titrated test compounds added in columns 3 through 12; columns 1 and 2 contained a control compound (HCV protease inhibitor), and the bottom row contained cells without compound. The plates were then placed in a CO2 incubator at 37° C.
Assays. Subsequent to addition of the test compounds described above (FRET Assay Preparation), at various times the plate was removed and Alamar blue solution (Trek Diagnostics, #00-100) was added per well as a measure of cellular toxicity. After reading in a Cytoflour 4000 instrument (PE Biosystems), plates were rinsed with PBS and then used for FRET assay by the addition of 30 ul of the FRET peptide assay reagent described above (FRET Assay Preparation) per well. The plate was then placed into the Cytoflour 4000 instrument which had been set to 340 excite/490 emission, automatic mode for 20 cycles and the plate read in a kinetic mode. Typically, the signal to noise using an endpoint analysis after the reads was at least three-fold. Alternatively, after Alamar blue reading, plates were rinsed with PBS, 50 ul of DMEM (high glucose) without phenol red was added and plates were then used for luciferase assay using the Promega Dual-Glo Luciferase Assay System.
Compound analysis was determined by quantification of the relative HCV replicon inhibition and the relative cytotoxicity values. To calculate cytoxicity values, the average Alamar Blue fluorescence signals from the control wells were set as 100% non-toxic. The individual signals in each of the compound test wells were then divided by the average control signal and multiplied by 100% to determine […]. To calculate the HCV replicon inhibition values, an average background value was obtained from the two wells containing the highest amount of HCV protease inhibitor at the end of the assay period. These numbers were similar to those obtained from naïve Huh-7 cells.
The background numbers were then subtracted from the average signal obtained from the control wells and this number was used as 100% activity. The individual signals in each of the compound test wells were then divided by the averaged control values after background subtraction and multiplied by 100% to determine percent activity. EC50 values for a protease inhibitor titration were calculated as the concentration which caused a 50% reduction in FRET or luciferase activity. The two numbers generated for the compound plate, percent cytoxicity and percent activity were used to determine compounds of interest for further analysis.

[3] = Hepatitis C virus, FRET assay, HCV replicon cells, read-out: EC50

T1 sequence (Q9WMX2 2420-2992): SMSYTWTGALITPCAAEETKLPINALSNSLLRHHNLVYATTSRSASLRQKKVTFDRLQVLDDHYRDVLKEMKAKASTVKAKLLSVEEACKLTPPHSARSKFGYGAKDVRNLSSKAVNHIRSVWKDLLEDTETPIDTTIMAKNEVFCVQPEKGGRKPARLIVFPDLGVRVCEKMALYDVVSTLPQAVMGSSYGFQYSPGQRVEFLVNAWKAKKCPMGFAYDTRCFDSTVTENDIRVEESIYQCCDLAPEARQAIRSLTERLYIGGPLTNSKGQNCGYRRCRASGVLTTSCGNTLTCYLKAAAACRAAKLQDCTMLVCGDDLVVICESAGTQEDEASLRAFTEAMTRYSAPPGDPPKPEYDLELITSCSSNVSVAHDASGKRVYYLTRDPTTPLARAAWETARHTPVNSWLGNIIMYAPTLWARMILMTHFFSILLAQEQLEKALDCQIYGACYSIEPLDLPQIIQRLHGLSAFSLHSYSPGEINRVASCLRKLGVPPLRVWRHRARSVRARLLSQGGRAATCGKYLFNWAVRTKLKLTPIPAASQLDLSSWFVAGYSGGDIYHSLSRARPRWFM

Compound	IC50 [1]	EC50 [2, 3]	EC50 ([2]; FRET assay, HCV replicon cells, read-out: EC50)	EC50 ([2]; Hepatitis C virus)
COc1ccc2c(c1)C1CC1(C(=O)N1C[C@@H](C)N(C(C)C)[C@@H](C)C1)Cn1c-2c(C2CCCCC2)c2ccc(C(=O)NS(=O)(=O)N(C)C)cc21 (stereo partly shown)	1 to 500 nM	1 to 500 nM		
COc1ccc2c(c1)C1CC1(C(=O)N1C[C@@H](C)N(C)[C@@H](C)C1)Cn1c-2c(C2CCCCC2)c2ccc(C(=O)NS(=O)(=O)N3CCC3)cc21 (stereo partly shown)	1 to 500 nM	1 to 500 nM		
C[C@@H]1CN(C(=O)C23CC2c2cc(O)ccc2-c2c(C4CCCCC4)c4ccc(C(=O)NS(=O)(=O)N(C)C)cc4n2C3)C[C@H](C)N1C (stereo partly shown)	1 to 500 nM	1 to 500 nM		
COc1ccc2c(c1)C1CC1(C(=O)N1C[C@@H](C)N(C)[C@@H](C)C1)Cn1c-2c(C2CCCCC2)c2ccc(C(=O)NS(=O)(=O)C(C)C)cc21 (stereo partly shown)	1 to 500 nM	1 to 500 nM		
COc1ccc2c(c1)C1CC1(C(=O)N1C[C@@H](C)N(C)[C@@H](C)C1)Cn1c-2c(C2CCCCC2)c2ccc(C(=O)NS(C)(=O)=O)cc21 (stereo partly shown) [drawing 34]	1 to 500 nM		1 to 500 nM	
COc1cccc2c1C1CC1(C(=O)N1C[C@@H](C)N(C)[C@@H](C)C1)Cn1c-2c(C2CCCCC2)c2ccc(C(=O)NS(=O)(=O)N(C)C)cc21 (stereo partly shown)	1 to 500 nM	1 to 500 nM		
COc1ccc2c(c1)C1CC1(C(=O)N1C[C@@H](C)N(C(C)=O)[C@@H](C)C1)Cn1c-2c(C2CCCCC2)c2ccc(C(=O)NS(=O)(=O)N(C)C)cc21 (stereo partly shown)	1 to 500 nM			1 to 500 nM
COc1ccc2c(c1)C1CC1(C(=O)N1C[C@@H](C)N(C)[C@@H](C)C1)Cn1c-2c(C2CCCCC2)c2ccc(C(=O)NS(C)(=O)=O)cc21 (stereo partly shown) [drawing 31]	1 to 500 nM	1 to 500 nM		
COc1ccc2c(c1)C1CC1(C(=O)N1C[C@@H](C)N(C)[C@@H](C)C1)Cn1c-2c(C2CCCCC2)c2ccc(C(=O)NS(=O)(=O)N(C)C)cc21 (stereo partly shown)	1 to 500 nM			1 to 500 nM
COc1ccc2c(c1)[C@H]1C[C@@]1(C(=O)N1C[C@@H](C)N(C)[C@@H](C)C1)Cn1c-2c(C2CCCCC2)c2ccc(C(=O)NS(=O)(=O)N(C)C)cc21	1 to 500 nM			1 to 500 nM
COc1ccc2c(c1)C1CC1(C(=O)N1C[C@@H](C)N(C)[C@@H](C)C1)Cn1c-2c(C2CCCCC2)c2ccc(C(=O)NS(=O)(=O)C3CC3)cc21 (stereo partly shown)	1 to 500 nM	1 to 500 nM		
C[C@@H]1CN(C(=O)C23CC2c2cc(OCc4ccccc4)ccc2-c2c(C4CCCCC4)c4ccc(C(=O)NS(=O)(=O)N(C)C)cc4n2C3)C[C@H](C)N1C (stereo partly shown)	1 to 500 nM	1 to 500 nM		
COc1ccc2c(c1)C1CC1(C(=O)N1[C@H](C)CN(Cc3ccccc3)C[C@@H]1C)Cn1c-2c(C2CCCCC2)c2ccc(C(=O)NS(=O)(=O)N(C)C)cc21 (stereo partly shown)	1000 to 10000 nM	500 to 1000 nM		
COc1ccc2c(c1)[C@@H]1C[C@]1(C(=O)N1C[C@@H](C)N(C)[C@@H](C)C1)Cn1c-2c(C2CCCCC2)c2ccc(C(=O)NS(=O)(=O)N(C)C)cc21	1 to 500 nM			1 to 500 nM
